Results as given in PMC5735336, “Microwave-assisted synthesis and antitumor evaluation of a new series of thiazolylcoumarin derivatives” (EXCLI Journal, 2017).
pIC50: −log10 of the molar value.

Tests used:
[1] = In vitro cytotoxicity testing, MTT assay, W138 normal cells; format: cell-based; details: W138 normal lung fibroblast cells, human normal lung fibroblast W138, read-out: IC50 W138 normal cell line
Procedure: In vitro cytotoxic activity of 5f, 5h, 5m and 5r was evaluated in accord to the reported method (Mosmann, 1983[46]; Denizot and Lang, 1986[13]; Gerlier and Thomasset, 1986[21]).
The effective antitumor compounds, 5f, 5h, 5m and 5r were further assessed for in vitro cytotoxicity toward human normal lung fibroblast (W138) cell line (Mosmann, 1983[46]; Denizot and Lang, 1986[13]; Gerlier and Thomasset, 1986[21]). IC50 values (µM) of the tested compounds and 5-FU (reference cytotoxic agent) were calculated. […]
(§1) In vitro antitumor screening
(§2) Compounds 5a-t were screened for in vitro antitumor activity against HepG2 (liver), HCT-116 (colon) and MCF-7 (breast) cancer cell lines adopting MTT assa y (Mosmann, 1983; Denizot and Lang, 1986; Gerlier and Thomasset, 1986) and usin g 5- fluorouracil as a reference antitumor agent. Cells were cultured in Roswell Park Memorial Institute (RPM I) 1640 medium wit h 10% fetal bovine serum, penicillin (100 units/mL) and streptomycin (100 µg/mL) at 37 ° C in an atmosphere of 5% CO 2 were added.
(§3) Cells were placed in 96-multiwell microtiter plates (10^4 cells/well), for 24 h rs at 37 °C and in an atmosphere of 5% CO2 before tr eatment with the compounds to allow attachment of the cells to the wall of the plate. The tested compounds were dissolved in DMSO and diluted with phosphate buffer saline (PBS) to obtain different concentrations. Tested compounds of dif-ferent concentrations were added to each well and cells were incubated with the compounds for 48 hrs at 37 °C and in an atmosphere of 5% CO2. All tests were performed in triplicates.
(§4) The treated cells were wash ed with PBS and 100 µL of 3 -(4,5-dimeth ylthiazol-2-yl )-2,5-diphe-n yltetrazolium bromide solution (MTT) (5 mg/m L MTT st ock in PBS diluted to 1 mg/ mL with 10% RPMI-1640 medium) was added. The 9 6 -multiwell plates were read b y microarra y read er Perkinelmer vector 3V multilabel counter model 1420 (Perkinelmer, Boston, MA) for optical densit y at 490 nm (Mosmann, 1983; Denizot and Lang, 1986; Gerlier and Thomasset, 1986).
(§5) The relative percenta ge cell viabilit y was calculate d from the following equation: […]
(§6) The relation between surviving fraction and drug concentration is plotted to get the survival curve for HepG2, HCT-116 and M CF-7 cancer cell lines . […]
In vitro cytotoxicity testing […]
J Immunol Methods. 1986;89:271-7.
(§7) Gerlier D, Thomasset T. Use of MTT colorimetric assa y to measure cell activation. J Immunol Methods. 1986; […]
(§8) Mosmann T. Rapid colorimetric assa y for cellular growth and survival: Application to proliferation and cytotox- […]
(§9) Oberling C, Gu erin M. The role of viruses in the production of cancer . Ad v Cancer Res. 1954;2:353-423.
(§10) Sheeja KR, Kuttan G, Kuttan R. C ytotox ic and antitumour activit y of Berberin. Amala Res Bull. 1997;17:73-6.

[2] = tested on: kidney fibroblast (COS-7) cancer cell line; test: In vitro antitumor screening, MTT assay, COS-7; format: cell-based; details: Chlorocebus aethiops, 50% inhibition of cell viability, COS-7 cell line
Procedure: (§11) The new analogs were tested for in vitro antitumor efficacy adopting the reported procedure (Mosmann, 1983[46]; Denizot and Lang, 1986[13]; Gerlier and Thomasset, 1986[21]).
(§12) In vitro antitumor screening of compounds 5a-t was carried out on cervical (Hela) and kidney fibroblast (COS-7) cancer cell lines in accord to MTT assay (Mosmann, 1983[46]; Denizot and Lang, 1986[13]; Gerlier and Thomasset, 1986[21]) and utilizing doxorubicin as a standard drug. The concentrations of the compounds that cause 50% inhibition of cell viability (IC50, µM) were calculated. […]
In vitro antitumor screening […]
as §2, with “HCT-116” for “Compounds 5a-t were screened for in vitro antitumor activity against HepG2 (liver), HCT-116”
as §3, §4, §5, §6
(§13) Denizot F, Lang R. Rapid colorimetric assa y for cell growth and survival. Modifications to the tetrazolium dye procedure giving improved sensitivity an d reliability. J Immunol Methods. 1986;89:271-7.
as §7, §8, §9, §10

EAC cells = test: In vivo antitumor screening against EAC cells in mice; details: 0.5 mg/mouse; for Hb / RBCs Count / WBCs Count: blood profile of mice inoculated with EAC cells; for Viable tumor cell count/100 μL / Tumor volume / Mean survival time / % Increase in lifespan: mice inoculated with EAC cells; for Viable tumor cell count/100 μL: after five days of treatment, trypan blue; for Tumor volume: ascitic fluid; for Mean survival time: treatment for nine days; for % Increase in lifespan: %ILS = [(MST treated/MST positive control)-1] x 100
Procedure: In vivo antitumor assessment of 5f, 5h, 5m and 5r was performed according to the literature method (Oberling and Guerin, 1954[48]; Sheeja et al., 1997[64]; Clarkson and Burchenal, 1965[9]).
Results of in vivo antitumor screening of compounds 5f, 5h, 5m and 5r (showing the highest in vitro antitumor activity) against EAC cells in mice are listed in Tables 2-4(Tab. 2)(Tab. 3)(Tab. 4). The % increase in lifespan of EAC inoculated mice (%ILS), the decrease in viable tumor cell count and the retrieval of normal blood profile are three substantial measures used for estimation of antitumor efficacy of the selected compounds and 5-fluorouracil (5-FU) (standard agent) (Oberling and Guerin, 1954[48]; Sheeja et al., 1997[64]; Clarkson and Burchenal, 1965[9]). The mean survival time (MST) of each group was rated and %ILS of mice inoculated with EAC cells was determined adopting the equation: %ILS = [(MST of treated group/ MST of positive control group)-1] x 100, where MST = days of the mouse in a group/total no. of mice. […] Also, this compound produced considerable decrease in viable tumor cell count (Table 3(Tab. 3)). […]
In vivo antitumor screening
Swiss male albino mice (wei ghing 20-25 g) were utilized. The y were dwelled in microlon boxes at temperature 25 ± 2 °C with a regular 12 hrs light/dark cycl e, in addition, food and water intake were permitted.
EAC cells were acquir ed from the NCI, Cairo, Egypt.
Mice were divided into 7 groups (n= 6).
Group 1: Negative contr ol (no EAC cells) - recei ved normal saline.
Group 2: Positive control (EAC cells) - receiv ed normal saline.
Group 3: EAC cells - received compound 5f (0.5 mg/mouse).
Group 4: EAC cells - received compound 5h (0.5 mg/mouse).
Group 5: EAC cells - received compound 5m (0.5 mg/mouse).
Group 6: EAC cells - received compound 5r (0.5 mg/mouse).
Group 7: EAC cells - received 5-fluorouracil (0.5 mg/mouse).
2 x 10^6 cells were inoc ulated intraperitoneall y t o each mouse in all groups ex cept the neg-ative control group. The tr eatment began 24 hrs after inoculation (0.5 mg/mouse) and con-tinued for nine days (Oberlin g and Gu erin, 19 54; Sheeja et al., 1997; Clarkson and Burch enal, […]
Determination of tumor volume
The ascetic fluid was gath ered from the peritoneal cavit y of dissected mice. It was th en centrifuged for 5 min and the tumor cell volume was set.
Determination of viable tumor cell count after five days of treatment
EAC cells (100 μ L, from three mice of each group) were obtained and diluted to twent y-fold with saline. The cells were st ained with tr ypan blue, t he dead cells are stained, whereas […]
The number of viable cells was counted. […]
Clarkson BD, Burchenal JH. Preliminary screening of antineoplastic drugs. Prog Clin Cancer. 1965;1:625-9. […]
as §9, §10

[3] = tested on: cervical (Hela) cancer cell line; test: In vitro antitumor screening, MTT assay, Hela; format: cell-based; details: Homo sapiens, 50% inhibition of cell viability
Procedure: as §11, §12, §1, §2, §3, §4, §5, §6, §13, §7, §8, §9, §10

Compound `O=c1oc2ccccc2cc1-c1csc(NN=Cc2c(Cl)cccc2Cl)n1` [5f, 3-(2-(2-(2,6-Dichlorobenzylidene)hydrazino)thiazol-4-yl)-2H-chromen-2-one] has an IC50 at 48 h [1] of 36.2 µM, a pIC50 [2] of less than 4.30 and a Hb (EAC cells) of 12.92 g/dL. The “RBCs Count” value (EAC cells) was 5.14 10^6/mm^3, the “WBCs Count” value (EAC cells) was 8.41 10^3/mm^3 and the “Viable tumor cell count/100 μL” value (EAC cells) was 25.83x10^6 /100 μL. The Tumor volume (EAC cells) was 2.62 mL, the Mean survival time (EAC cells) was 41.0 days and the “% Increase in lifespan” value (EAC cells) was 182.7%. The pIC50 [3] was 5.72.
`O=c1oc2ccccc2cc1-c1csc(NN=Cc2cc([N+](=O)[O-])ccc2Cl)n1` [5h, 3-(2-(2-(2-Chloro-5-nitrobenzylidene)hydrazino)thiazol-4-yl)-2H-chromen-2-one] gave an IC50 at 48 h [1] of 19.8 µM, a pIC50 [2] of 5.71 and a Hb (EAC cells) of 11.97 g/dL. The “RBCs Count” value (EAC cells) was 4.92 10^6/mm^3, the “WBCs Count” value (EAC cells) was 9.25 10^3/mm^3 and the “Viable tumor cell count/100 μL” value (EAC cells) was 32.57x10^6 /100 μL. For the same compound, the Tumor volume (EAC cells) was 3.12 mL, the Mean survival time (EAC cells) was 39.3 days and the “% Increase in lifespan” value (EAC cells) was 171.0%. The pIC50 [3] was 5.85.
In the case of `O=c1oc2ccccc2cc1-c1csc(NN=Cc2ccc[nH]2)n1` [5m, 3-(2-(2-((1H-Pyrrol-2-yl)methylidene)hydrazino)thiazol-4-yl)-2H-chromen-2-one], the IC50 at 48 h [1] was 29.5 µM, the pIC50 [2] was 4.90 and the Hb (EAC cells) was 11.43 g/dL. The “RBCs Count” value (EAC cells) was 4.39 10^6/mm^3, the “WBCs Count” value (EAC cells) was 9.61 10^3/mm^3 and the “Viable tumor cell count/100 μL” value (EAC cells) was 40.52x10^6 /100 μL. For the same compound, the Tumor volume (EAC cells) was 3.85 mL, the Mean survival time (EAC cells) was 37.0 days and the “% Increase in lifespan” value (EAC cells) was 155.2%. For the same compound, the pIC50 [3] was 5.20.
With `O=c1oc2ccccc2cc1-c1csc(NN=Cc2c3ccccc3c(Cl)c3ccccc23)n1` [5r, 3-(2-(2-((10-Chloroanthracen-9-yl)-methylidene)hydrazino)thiazol-4-yl)-2H-chromen-2-one] the IC50 at 48 h [1] was 24.3 µM, the pIC50 [2] was 5.78 and the Hb (EAC cells) was 13.10 g/dL. For the same compound, the “RBCs Count” value (EAC cells) was 5.55 10^6/mm^3, the “WBCs Count” value (EAC cells) was 7.45 10^3/mm^3 and the “Viable tumor cell count/100 μL” value (EAC cells) was 21.94x10^6 /100 μL. The Tumor volume (EAC cells) was 2.11 mL, the Mean survival time (EAC cells) was 45.5 days and the “% Increase in lifespan” value (EAC cells) was 213.8%. For the same compound, the pIC50 [3] was 5.89.
For `O=c1[nH]cc(F)c(=O)[nH]1` [5-Fluorouracil, 5-fluorouracil, reference compound], the IC50 at 48 h [1] was 5.73 µM, the Hb (EAC cells) was 12.96 g/dL and the “RBCs Count” value (EAC cells) was 5.21 10^6/mm^3. The “WBCs Count” value (EAC cells) was 8.86 10^3/mm^3, the “Viable tumor cell count/100 μL” value (EAC cells) was 20.17x10^6 /100 μL and the Tumor volume (EAC cells) was 1.60 mL. The Mean survival time (EAC cells) was 49.0 days and the “% Increase in lifespan” value (EAC cells) was 237.9%.
